Measurements as given in PubChem BioAssay (NCI).
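Tested at 5 concentrations; 48 h exposure; 96-well plates; endpoints linearly interpolated, else capped at highest concentration. Definition used: TGI = concentration required for complete inhibition of growth.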

What was measured:
Assay in all cases: inhibition of tumour cell growth, NCI panel, 48 h
EKVX NSCLC = tested on: EKVX NSCLC
HCT-116 colon = tested on: HCT-116 colon
HCC-2998 colon = tested on: HCC-2998 colon
MOLT-4 leukemia = tested on: MOLT-4 leukemia
HCT-15 colon = tested on: HCT-15 colon
ACHN renal = tested on: ACHN renal
SK-MEL-28 melanoma = tested on: SK-MEL-28 melanoma
OVCAR-3 ovarian = tested on: OVCAR-3 ovarian
SF-268 CNS = tested on: SF-268 CNS
SR leukemia = tested on: SR leukemia
NCI-H460 lung = tested on: NCI-H460 lung
MDA-MB-435 = tested on: MDA-MB-435
MCF7 breast = tested on: MCF7 breast
HS 578T breast = tested on: HS 578T breast
SN12C renal = tested on: SN12C renal
HOP-62 NSCLC = tested on: HOP-62 NSCLC
DU-145 prostate = tested on: DU-145 prostate
HT29 colon = tested on: HT29 colon
SNB-19 CNS = tested on: SNB-19 CNS
SK-OV-3 ovarian = tested on: SK-OV-3 ovarian
SF-539 CNS = tested on: SF-539 CNS
TK-10 renal = tested on: TK-10 renal
PC-3 prostate = tested on: PC-3 prostate
OVCAR-8 ovarian = tested on: OVCAR-8 ovarian
CCRF-CEM leukemia = tested on: CCRF-CEM leukemia
BT-549 breast = tested on: BT-549 breast
SK-MEL-2 melanoma = tested on: SK-MEL-2 melanoma
UO-31 renal = tested on: UO-31 renal
SW-620 colon = tested on: SW-620 colon
NCI/ADR-RES ovarian = tested on: NCI/ADR-RES ovarian
K-562 leukemia = tested on: K-562 leukemia
T-47D breast = tested on: T-47D breast
IGROV1 ovarian = tested on: IGROV1 ovarian
UACC-62 melanoma = tested on: UACC-62 melanoma
RXF 393 renal = tested on: RXF 393 renal
SF-295 CNS = tested on: SF-295 CNS
U251 CNS = tested on: U251 CNS
HL-60(TB) leukemia = tested on: HL-60(TB) leukemia
MDA-MB-231 breast = tested on: MDA-MB-231 breast
MALME-3M melanoma = tested on: MALME-3M melanoma
A549 NSCLC = tested on: A549 NSCLC
A498 renal = tested on: A498 renal
NCI-H226 lung = tested on: NCI-H226 lung
M14 melanoma = tested on: M14 melanoma
786-0 renal = tested on: 786-0 renal
KM12 colon = tested on: KM12 colon
OVCAR-5 ovarian = tested on: OVCAR-5 ovarian
SK-MEL-5 melanoma = tested on: SK-MEL-5 melanoma
HOP-92 NSCLC = tested on: HOP-92 NSCLC
NCI-H23 lung = tested on: NCI-H23 lung
RPMI-8226 leukemia = tested on: RPMI-8226 leukemia
SNB-75 CNS = tested on: SNB-75 CNS
UACC-257 melanoma = tested on: UACC-257 melanoma
CAKI-1 renal = tested on: CAKI-1 renal
COLO 205 colon = tested on: COLO 205 colon
OVCAR-4 ovarian = tested on: OVCAR-4 ovarian

Measured: TGI

Cc1ccc(C2(c3ccc(C)cc3)SC(=C(C#N)C#N)c3ccccc32)cc1
not listed: RPMI-8226 leukemia | SNB-75 CNS | UACC-257 melanoma | CAKI-1 renal | COLO 205 colon | OVCAR-4 ovarian
> 100 µM: all other assays above

O=C1Cc2c([nH]c3ccccc23)C2(CC3CCCCN13)OCCO2 (configuration not stated)
not listed: MOLT-4 leukemia | SF-539 CNS | K-562 leukemia | HL-60(TB) leukemia
> 100 µM: all other assays above
